Laboratory results: patent US12357695B2, “Peptides and nanoparticles for intracellular delivery of molecules” (AADIGEN, LLC, priority 2019, dated 2025)
“Also recorded” adds a separate entry of the source.

Columns and labels:
mice [1] = assay: In vivo delivery of Luciferase mRNA, intramuscular administration, bioluminescence imaging; conditions: IM, Luc mRNA
Procedure: FIGS. 5A-5B show the potency of ADGN-peptide variants for in vivo delivery of Luciferase mRNA via intramuscular administration in mice. ADGN-peptide/luc mRNA particles containing 2.5 μg mRNA were formed in sterile water, and then diluted in 5% sucrose. Mice received […] injection o 25 μl ADGN-peptide/mRNA complexes. mRNA LUC expression was monitored by bioluminescence imaging after 12 h, 24 h and 48h (A). FIG. 5B show bioluminescence imaging at 24 hr in control and treated groups.
(§1) Stable ADGN-peptides/mRNA were evaluated for in vivo delivery of Luciferase mRNA via intravenous and intramuscular administrations. Animals were treated with single dose of 5 moU modified Luc mRNA of 5 μg. 5 moU modified Luc mRNA (5 μg) in sterile water (GIBCO) were mixed with ADGN peptide (sterile water), volume for each sample was adjusted to 100 μl, with sterile water containing 5% Sucrose. Samples were mixed gently with vortex for 1 minute at low speed and incubated for 30 min at room temperature. Samples were filtered on 0.45 μm PES filters prior administration. For IV administration Mice received 100 μl intravenous (IV) injection of either ADGN-106/mRNA, ADGN-100/mRNA, ADGN-106RI/mRNA, ADGN-100-stearyl/mRNA, ADGN-100Hydro1/mRNA, ADGN-100Hydro2 or ADGN/mRNA complexes containing 10% of ADGN-100PEG (3 animals per group). As control, mice from group 3 (2 animals per group) received IV injection of 100 μl of naked 5 moU modified Luc mRNA (5 μg). For IM administration, mice received 25 μl (5 μg mRNA) IV injection of either ADGN-100/mRNA, ADGN-106/mRNA, ADGN-106RI/mRNA or ADGN/mRNA complexes containing 10% or 20% of ADGN-100PEG (2 animals per group). As control, mice from group 3 (2 animals per group) received IV injection of 25 μl of naked 5 moU modified Luc mRNA (5 μg).
(§2) mRNA Luc expression was monitored by bioluminescence. Bioluminescence imaging was performed after 12, 24, 48 and 72 hrs. Mice received an i.p. injection of 150 μg/g luciferin for noninvasive bioluminescence imaging (IVIS Kinetic; PerkinElmer, Waltham, MA, USA).

mice or rat models = assay: Summary of cargo delivery to targeted organ (Table 1); format: in vivo; conditions: cargoes and route (IV, IM, SQ, NB) per peptide as listed in Table 1
Text: Table 1 lists a summary of cell-penetrating peptides that have been proven successful in delivering various cargo molecules to on or more targeted organ (e.g., by intravenous (IV), intramuscular (IM), or subcutaneous (SQ) administration, or intratraccheal instillation or nebulization (NB)) in mice or rat models.

mice [2] = assay: In vivo delivery of pGL4 plasmid DNA, intramuscular administration, bioluminescence imaging; conditions: IM, 2.5 μg pGL4 plasmid
Procedure: FIGS. 7A-7B show the potency of ADGN-peptide variants for in vivo delivery of Luciferase expressing plasmid pGL4 via intramuscular administration in mice. ADGN-peptide/pGL4 luc particles containing 2.5 μg plasmid DNA were formed in sterile water, and then diluted in 5% sucrose. Mice received IV injection of 25 μl ADGN-peptide/pGL4 complexes. Luciferase expression was monitored by bioluminescence imaging after 12 h, 24 h and 48h (A). FIG. 7B show bioluminescence imaging at 24 hr in control and treated groups.
(§3) Stable ADGN-peptides/pGL4.11 DNA were evaluated for in vivo delivery of Luciferase mRNA via intravenous and intramuscular administrations. Animals were treated with single dose of pGL4.11 plasmid DNA of 5 μg. via IV and 2.5 μg via intramuscular administration.
For IM administration, mice received 25 μl (2.5 μg of pGL4 plasmid) IV injection of either ADGN-100/PGL4, ADGN-106/PGL4, ADGN-100RI/PGL4, ADGN-100hydro1/PGL4, ADGN-100hydro6/PGL4, ADGN-100 stearyl/PGL4 or ADGN-100/PGL4 complexes containing 10% or 20% of ADGN-100PEG (2 animals per group). As control, mice from group 3 (2 animals per group) received IV injection of 25 μl of naked PGL4 plasmid (2.5 μg).
(§4) Luciferase expression was monitored by bioluminescence. Bioluminescence imaging was performed after 12, 24, 48 and 72 hrs. Mice received an i.p. injection of 150 μg/g luciferin for noninvasive bioluminescence imaging (IVIS Kinetic; PerkinElmer, Waltham, MA, USA).

mice [3] = assay: In vivo delivery of Luciferase mRNA, intravenous administration, bioluminescence imaging; conditions: 5 μg Luc mRNA, single dose
Procedure: FIGS. 4A-4D show the potency of ADGN-peptide variants for in vivo delivery of Luciferase mRNA via intravenous administration in mice. ADGN-peptide/luc mRNA particles containing 5 μg mRNA were formed in sterile water, and then diluted in 5% sucrose. Mice received IV injection of 100 μl ADGN-peptide/mRNA complexes. mRNA LUC expression was monitored by bioluminescence imaging after 12 h, 24 h, 48 h and 72 h. FIG. 4B show bioluminescence imaging at 24 hr in control and treated groups. Semi-quantitative data of luciferase signal in the liver (C) and in the lung (D) were obtained using the manufacturer's software (Living Image; PerkinElmer). Results were then expressed as values relative to day 0.
as §1, §2

mice [4] = assay: In vivo delivery of pGL4 plasmid DNA, intravenous administration, bioluminescence imaging; conditions: 5 μg pGL4 plasmid
Procedure: FIGS. 6A-6C show the potency of ADGN-peptide variants for in vivo delivery of Luciferase expressing plasmid pGL4 via intravenous administration in mice. ADGN-peptide/pGL4 particles containing 5 μg plasmid DNA were formed in sterile water, and then diluted in 5% sucrose. Mice received IV injection of 100 μl ADGN-peptide/plasmid complexes. pGL4 Luciferase expression was monitored by bioluminescence imaging after 12 h, 24h, 48h and 72h. […] Results were then expressed as values relative to day 0.
as §3
pGL4.11 DNA plasmid (5 μg) in sterile water (GIBCO) were mixed with ADGN peptide (sterile water), volume for each sample was adjusted to 100 μl, with sterile water containing 5% Sucrose. Samples were mixed gently with vortex for 1 minute at low speed and incubated for 30 min at room temperature. Samples were filtered on 0.45 μm PES filters prior administration. For IV administration Mice received 100 μl IV injection of either ADGN-106/pGL4, ADGN-100/pGL4, ADGN-100RI/pGL4, ADGN-100-stearyl/PGL4, ADGN-100Hydro1/PGL4, ADGN-100Hydro2/PGL4, ADGN100 Hydro6/PGL4 or ADGN/PGL4 complexes containing 10% or 20% of ADGN-100PEG (3 animals per group). As control, mice from group 3 (2 animals per group) received IV injection of 100 μl of naked pGL4 plasmids (5 μg).
as §4

Question: For “Ac-GYVS-Aun(CH2)6-ALWRALWRLWRSLWRLLWKA-NH2 [ADGN-106 hydro-6]”, which “increase of luciferase expression in the muscle / efficiency relative to ADGN-106” value (mice [1]) is on record?
Answer: Its value is 4 fold.

Question: What about the luciferase expression (mice [1]) of the same substance?
Answer: Its luciferase expression is “mediated Luciferase expression following intramuscular (IM) administration”.

Question: And the “Targeted Organ” value (mice or rat models)?
Answer: The value was “Tumor/Pancreas/ and Lung”.

Question: For “Ac-YIGSR-(G)4-KWRSALWRWRLWRVRSWSR-NH2 (Ac-YIGSRGGGGKWRSALWRWRLWRVRSWSR-NH2) [ADGN-100-Hydro-1]”, which luciferase expression (mice [2]) is on record?
Answer: Its luciferase expression is “no significant expression”.

Question: And the “mRNA / luciferase expression and tissues” value (mice [3])?
Answer: Its value is “negligible luciferase expression”.

Question: What about the “Targeted Organ” value (mice or rat models) of the same substance?
Answer: The value was “Lung/Kidney/; also recorded: Liver”.

Question: And the “luciferase expression and tissues” value (mice [4])?
Answer: The value was “negligible luciferase expression”.
